# Results taken from ChEMBL document CHEMBL5532661, “Discovery of a Novel Glucagon-like Peptide-1 (GLP-1) Analogue from Bullfrog and Investigation of Its Potential for Designing GLP-1-Based Multiagonists” (J Med Chem, 2024).
# Active and inactive are the calls of the source. The calls are words filed in the database; no cut-off is given here. Numbered stars: 1 amine (or outer) side, 2 acyl side, 3 side chain; on linkers, the order of the positions; unused ones are H or OH. Square brackets hold non-standard residues; d marks the D form. Side chains are listed from the residue outwards. Peptide text beside a SMILES is read from it. * marks the point of attachment. C18 diacid = O=C(O)CCCCCCCCCCCCCCCCC(=O)*; γGlu = O=C(O)[C@H](CCC(=O)[*:2])N[*:1]; AEEA = NCCOCCOCC(=O)O; Aib = CC(C)(N)C(=O)O
# Experiments:
# Mus musculus [1] = assay: Reduction in body weight in DIO mouse at 30 nmol/kg, sc treated twice a day measured after 21 days; assay type: functional; parameters: scale not given: the % may be the effect or the level left; settings: time 21 day
# Mus musculus [2] = assay: Reduction in serum ALT level in DIO mouse at 30 nmol/kg, sc treated twice a day measured after 21 days; assay type: functional, organism-based; settings: time 21.0 day
# Mus musculus [3] = assay: Anorexigenic effect in ICR mouse assessed as decrease in food intake at 30 nmol/kg, sc measured upto 72 hrs by acute food intake study; assay type: functional, organism-based
# [4] = molecular target: T1, Glucagon-like peptide 1 receptor (Homo sapiens, UniProt P43220); assay: Agonist activity at human GLP-1 receptor expressed in HEK293 cells assessed as cAMP level measured after 60 mins by HTRF based assay; assay type: functional, cell-based
# T1 sequence (P43220 whole entry): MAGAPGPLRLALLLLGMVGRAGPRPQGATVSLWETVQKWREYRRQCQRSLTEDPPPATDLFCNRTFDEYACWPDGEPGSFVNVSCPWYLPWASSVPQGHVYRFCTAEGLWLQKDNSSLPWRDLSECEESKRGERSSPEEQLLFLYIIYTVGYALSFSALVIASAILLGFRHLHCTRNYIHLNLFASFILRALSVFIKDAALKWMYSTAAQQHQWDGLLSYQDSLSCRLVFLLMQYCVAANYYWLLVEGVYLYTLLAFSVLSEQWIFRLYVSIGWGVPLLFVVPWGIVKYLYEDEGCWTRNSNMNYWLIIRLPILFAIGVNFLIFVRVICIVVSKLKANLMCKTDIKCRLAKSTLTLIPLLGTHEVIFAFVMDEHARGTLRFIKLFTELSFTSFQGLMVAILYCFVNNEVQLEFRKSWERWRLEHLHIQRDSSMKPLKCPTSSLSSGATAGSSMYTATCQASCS
# Mus musculus [5] = assay: Reduction in serum AST level in DIO mouse at 30 nmol/kg, sc treated twice a day measured after 21 days; assay type: functional, organism-based; settings: time 21.0 day
# Mus musculus [6] = assay: Reduction in feed intake in DIO mouse at 30 nmol/kg, sc treated twice a day measured after 21 days; assay type: functional, organism-based; settings: time 21.0 day
# Glucagon receptor [7] = molecular target: T2, Glucagon receptor (Homo sapiens, UniProt P47871); assay: Agonist activity at human GCGR expressed in HEK293 cells assessed as cAMP level measured after 60 mins by HTRF based assay; assay type: functional, cell-based
# T2 sequence (P47871 whole entry): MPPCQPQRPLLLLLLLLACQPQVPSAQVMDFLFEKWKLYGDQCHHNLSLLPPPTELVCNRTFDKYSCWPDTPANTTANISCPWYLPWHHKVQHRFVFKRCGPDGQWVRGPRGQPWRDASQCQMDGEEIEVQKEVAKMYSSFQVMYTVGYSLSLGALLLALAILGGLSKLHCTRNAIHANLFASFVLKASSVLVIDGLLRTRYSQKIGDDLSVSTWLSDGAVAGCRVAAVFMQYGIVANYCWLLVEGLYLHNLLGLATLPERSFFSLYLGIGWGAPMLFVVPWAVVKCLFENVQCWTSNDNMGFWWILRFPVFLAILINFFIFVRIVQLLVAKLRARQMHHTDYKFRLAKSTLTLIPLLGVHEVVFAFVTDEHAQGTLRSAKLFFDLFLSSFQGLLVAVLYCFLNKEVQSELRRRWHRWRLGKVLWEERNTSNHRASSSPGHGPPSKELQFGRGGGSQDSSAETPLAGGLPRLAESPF
# Mus musculus [8] = assay: Hypoglycemic effect in ICR mouse treated with 3 g/kg glucose assessed as reduction in blood glucose level at 100 nmol/kg, sc measured upto 120 mins by acute glucose lowering test; assay type: functional, organism-based
# [9] = molecular target: T3, Gastric inhibitory polypeptide receptor (Homo sapiens, UniProt P48546); assay: Agonist activity at human GIPR receptor expressed in HEK293 cells assessed as cAMP level measured after 60 mins by HTRF based assay; assay type: functional, cell-based
# T3 sequence (P48546 whole entry): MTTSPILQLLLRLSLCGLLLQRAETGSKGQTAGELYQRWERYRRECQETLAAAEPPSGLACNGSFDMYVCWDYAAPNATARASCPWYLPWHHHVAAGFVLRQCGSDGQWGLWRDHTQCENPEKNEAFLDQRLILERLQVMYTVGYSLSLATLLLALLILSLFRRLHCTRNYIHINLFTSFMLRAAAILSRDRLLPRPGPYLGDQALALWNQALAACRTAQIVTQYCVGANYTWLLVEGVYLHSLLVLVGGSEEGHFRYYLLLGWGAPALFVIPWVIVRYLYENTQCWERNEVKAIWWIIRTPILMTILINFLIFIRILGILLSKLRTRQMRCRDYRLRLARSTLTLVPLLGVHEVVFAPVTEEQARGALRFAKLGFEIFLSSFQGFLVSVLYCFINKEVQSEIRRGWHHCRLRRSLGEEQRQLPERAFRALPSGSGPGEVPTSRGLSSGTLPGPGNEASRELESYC
# [10] = molecular target: T4, Gastric inhibitory polypeptide receptor (Homo sapiens) (UniProt P48546); assay: Agonist activity at human GIPR receptor expressed in HEK293 cells assessed as cAMP level by measuring relative percent (GIP EC50/compound EC50) measured after 60 mins by HTRF based assay relative to GIP; assay type: functional, cell-based
# T4 sequence (whole entry): T3 sequence (P48546 whole entry)
# [11] = molecular target: T5, Glucagon-like peptide 1 receptor (Mus musculus) (UniProt O35659); assay: Potency index, ratio of GLP-1 EC50 to test compound EC50 for agonist activity at mouse GLP-1 receptor expressed in HEK293 cells assessed as cAMP level measured after 60 mins by HTRF based assay; assay type: functional, cell-based; settings: filed as agonist
# T5 sequence (whole entry): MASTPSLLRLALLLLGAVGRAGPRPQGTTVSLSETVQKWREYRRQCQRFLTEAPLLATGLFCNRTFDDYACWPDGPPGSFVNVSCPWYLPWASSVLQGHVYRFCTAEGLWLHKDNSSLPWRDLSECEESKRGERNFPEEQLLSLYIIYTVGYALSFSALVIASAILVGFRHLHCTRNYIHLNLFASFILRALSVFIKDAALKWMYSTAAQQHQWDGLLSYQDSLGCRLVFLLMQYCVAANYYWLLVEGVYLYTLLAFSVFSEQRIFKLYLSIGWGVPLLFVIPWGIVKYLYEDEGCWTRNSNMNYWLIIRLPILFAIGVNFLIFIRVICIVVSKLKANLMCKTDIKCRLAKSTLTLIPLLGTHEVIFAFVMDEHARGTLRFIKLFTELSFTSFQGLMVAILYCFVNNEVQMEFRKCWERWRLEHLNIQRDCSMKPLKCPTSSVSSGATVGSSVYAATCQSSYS
# Mus musculus [12] = assay: Antihyperglycemic effect in DIO mouse assessed as antihyperglycemic duration by measuring blood glucose at 30 nmol/kg, sc administered twice daily measured by hypoglycemic duration assay; assay type: functional, organism-based
# [13] = molecular target: Glucagon receptor (Mus musculus) (UniProt Q61606); assay: Agonist activity at mouse GCGR receptor expressed in HEK293 cells assessed as cAMP level measured after 60 mins by HTRF based assay; assay type: functional, cell-based; settings: filed as agonist
# Chain of Glucagon receptor (Mus musculus) (Q61606 whole entry): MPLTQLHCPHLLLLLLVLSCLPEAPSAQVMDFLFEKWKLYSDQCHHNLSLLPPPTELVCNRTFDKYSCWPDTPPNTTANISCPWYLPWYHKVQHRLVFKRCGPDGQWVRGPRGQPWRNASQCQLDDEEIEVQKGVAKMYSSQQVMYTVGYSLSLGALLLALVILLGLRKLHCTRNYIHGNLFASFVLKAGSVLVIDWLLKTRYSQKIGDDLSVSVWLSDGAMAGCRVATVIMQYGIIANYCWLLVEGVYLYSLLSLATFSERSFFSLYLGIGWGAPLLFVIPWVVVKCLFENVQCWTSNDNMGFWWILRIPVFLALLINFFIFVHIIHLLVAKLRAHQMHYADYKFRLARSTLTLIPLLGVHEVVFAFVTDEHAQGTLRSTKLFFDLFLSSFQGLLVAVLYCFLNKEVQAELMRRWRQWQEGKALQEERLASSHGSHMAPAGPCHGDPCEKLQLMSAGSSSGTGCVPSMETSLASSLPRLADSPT
# Mus musculus [14] = assay: Hypoglycemic effect in ICR mouse treated with 3 g/kg glucose assessed as reduction in blood glucose level at 30 nmol/kg, sc measured upto 120 mins pretreated with GLP-1R and GIPR antagonist by OGTT; assay type: functional, organism-based
# Mus musculus [15] = assay: Reduction in serum triglyceride in DIO mouse at 30 nmol/kg, sc treated every 2 and half day once measured after 21 days; assay type: functional, organism-based; settings: time 21.0 day
# [16] = molecular target: T5, Glucagon-like peptide 1 receptor (Mus musculus); assay: Agonist activity at mouse GLP-1 receptor expressed in HEK293 cells assessed as cAMP level measured after 60 mins by HTRF based assay; assay type: functional, cell-based; settings: filed as agonist
# Mus musculus [17] = assay: Reduction in total cholesterol in DIO mouse at 30 nmol/kg, sc treated every 2 and half day once measured after 21 days; assay type: functional, organism-based; settings: time 21.0 day
# Mus musculus [18] = assay: Antihyperglycemic effect in DIO mouse assessed as prolonged antihyperglycemic duration by measuring blood glucose at 100 nmol/kg, sc; assay type: functional, organism-based
# [19] = molecular target: T1, Glucagon-like peptide 1 receptor; assay: Agonist activity at human GLP-1 receptor expressed in HEK293 cells assessed as cAMP level by measuring relative percent (GLP-1 EC50/compound EC50) measured after 60 mins by HTRF based assay relative to GLP-1; assay type: functional, cell-based; settings: filed as agonist
# Mus musculus [20] = assay: Reduction in serum ALT in DIO mouse at 30 nmol/kg, sc treated every 2 and half day once measured after 21 days; assay type: functional, organism-based; settings: time 21.0 day
# Mus musculus [21] = assay: Reduction in body weight in DIO mouse at 30 nmol/kg, sc treated every 2 and half day once measured after 21 days; assay type: functional; parameters: scale not given: the % may be the effect or the level left; settings: time 21 day
# Mus musculus [22] = assay: Antihyperglycemic effect in DIO mouse assessed as antihyperglycemic duration by measuring blood glucose at 30 nmol/kg, sc measured after 48 hrs by hypoglycemic duration assay; assay type: functional, organism-based
# Mus musculus [23] = assay: Reduction in total fat mass in DIO mouse at 30 nmol/kg, sc treated every 2 and half day once measured after 21 days; assay type: functional, organism-based; settings: time 21.0 day
# [24] = molecular target: Glucagon receptor (Mus musculus) (UniProt Q61606); assay: Potency index, ratio of glucagon EC50 to test compound EC50 for agonist activity at mouse GCGR expressed in HEK293 cells assessed as cAMP level measured after 60 mins by HTRF based assay; assay type: functional, cell-based; settings: filed as agonist
# Mus musculus [25] = assay: Reduction in hepatic lipid content in DIO mouse at 30 nmol/kg, sc treated every 2 and half day once measured after 21 days by H and E staining based assay; assay type: functional, organism-based; settings: time 21.0 day
# Mus musculus [26] = assay: Anorexigenic effect in ICR mouse assessed as decrease in food intake at 10 nmol/kg, sc measured upto 72 hrs by acute food intake study; assay type: functional, organism-based
# Glucagon receptor [27] = molecular target: T2, Glucagon receptor; assay: Agonist activity at human GCGR expressed in HEK293 cells assessed as cAMP level by measuring relative percent (glucagon EC50/compound EC50) measured after 60 mins by HTRF based assay relative to glucagon; assay type: functional, cell-based; settings: filed as agonist
# Mus musculus [28] = assay: Reduction in serum AST in DIO mouse at 30 nmol/kg, sc treated every 2 and half day once measured after 21 days; assay type: functional, organism-based; settings: time 21.0 day
# Mus musculus [29] = assay: Anorexigenic effect in sc dosed ICR mouse assessed as decrease in food intake measured upto 72 hrs by acute food intake study; assay type: functional, organism-based; settings: dose 10-100 nmol/kg
# Mus musculus [30] = assay: Hypoglycemic effect in ICR mouse treated with 3 g/kg glucose assessed as reduction in blood glucose level at 10 nmol/kg, sc measured upto 120 mins by acute glucose lowering test; assay type: functional, organism-based
# Mus musculus [31] = assay: Reduction in blood glucose level in non-fasting DIO mouse at 30 nmol/kg, sc treated every 2 and half day once measured after 21 days by glucose tolerance test; assay type: functional, organism-based; settings: time 21.0 day
compound,measurement,setting,value
CCCCCCCCCCCCCCCC(=O)N[C@@H](CCC(=O)NCCCC[C@H](NC(=O)[C@H](CC(=O)O)NC(=O)[C@H](CO)NC(=O)[C@@H](NC(=O)[C@H](Cc1ccccc1)NC(=O)[C@@H](NC(=O)CNC(=O)[C@H](CCC(N)=O)NC(=O)[C@H](CO)NC(=O)[C@@H](N)Cc1c[nH]cn1)[C@@H](C)O)[C@@H](C)O)C(=O)N[C@@H](CO)C(=O)N[C@@H](CCC(=O)O)C(=O)N[C@@H](Cc1ccc(O)cc1)C(=O)N[C@@H](CC(C)C)C(=O)N[C@@H](CC(=O)O)C(=O)N[C@@H](CO)C(=O)N[C@@H](CCC(=O)O)C(=O)N[C@@H](CCCNC(=N)N)C(=O)N[C@@H](C)C(=O)N[C@@H](CCCNC(=N)N)C(=O)N[C@@H](CC(=O)O)C(=O)N[C@@H](Cc1ccccc1)C(=O)N[C@H](C(=O)N[C@@H](C)C(=O)N[C@@H](Cc1c[nH]c2ccccc12)C(=O)N[C@@H](CC(C)C)C(=O)N[C@@H](CCC(=O)O)C(=O)N[C@@H](C)C(=O)NCC(=O)NCC(=O)O)C(C)C)C(=O)O [COTADUTIDE],Activity,Mus musculus [1],~24.6%
same,Activity,Mus musculus [2],Active
same,Activity,Mus musculus [3],Active
same,EC50,[4],0.075 nM
same,Activity,Mus musculus [5],Active
same,Activity,Mus musculus [6],Active
same,EC50,Glucagon receptor [7],0.17 nM
same,Activity,Mus musculus [8],Active
CC[C@H](C)[C@H](NC(=O)[C@H](CCCCNC(=O)COCCOCCNC(=O)COCCOCCNC(=O)CC[C@H](NC(=O)CCCCCCCCCCCCCCCCC(=O)O)C(=O)O)NC(=O)[C@H](CCC(=O)O)NC(=O)[C@H](CC(C)C)NC(=O)[C@H](C)NC(=O)[C@H](CCCNC(=N)N)NC(=O)[C@H](CO)NC(=O)[C@H](CCSC)NC(=O)[C@H](CC(=O)O)NC(=O)[C@H](CO)NC(=O)[C@@H](NC(=O)[C@H](Cc1ccccc1)NC(=O)[C@@H](NC(=O)CNC(=O)[C@H](CCC(N)=O)NC(=O)C(C)(C)NC(=O)[C@@H](N)Cc1c[nH]cn1)[C@@H](C)O)[C@@H](C)O)C(=O)N[C@@H](C)C(=O)N[C@@H](C)C(=O)N[C@@H](CCCNC(=N)N)C(=O)N[C@@H](CC(C)C)C(=O)N[C@@H](Cc1ccccc1)C(=O)N[C@H](C(=O)N[C@@H](CC(=O)O)C(=O)N[C@@H](Cc1c[nH]c2ccccc12)C(=O)N[C@@H](CC(C)C)C(=O)N[C@H](C(=O)N[C@@H](CCC(=O)O)C(=O)NCC(=O)NCC(=O)N1CCC[C@H]1C(=O)N[C@@H](CO)C(=O)N[C@@H](CO)C(=O)NCC(=O)N[C@@H](C)C(=O)N1CCC[C@H]1C(=O)N1CCC[C@H]1C(=O)N1CCC[C@H]1C(=O)N[C@@H](CO)C(N)=O)[C@@H](C)CC)C(C)C (H-H[Aib]QGTFTSDMSRALEK([AEEA-AEEA-γGlu-C18 diacid])IAARLFVDWLIEGGPSSGAPPPS-NH2),EC50,[9],0.6 nM
same,Activity,[10],4%
same,Ratio EC50,[11],1
same,Activity,Mus musculus [12],Active
same,Activity,[13],Active
same,Activity,Mus musculus [14],inactive
same,Activity,Mus musculus [15],Active
same,Activity,[16],Active
same,Activity,Mus musculus [17],Active
same,Activity,Mus musculus [18],Active
same,Activity,[19],442%
same,Activity,Mus musculus [20],Active
same,Activity,Mus musculus [21],40.7%
same,Activity,Mus musculus [22],Active
same,Activity,Mus musculus [23],Active
same,Activity,Mus musculus [3],Active
same,Ratio EC50,[24],1
same,EC50,[4],0.012 nM
same,Activity,Mus musculus [25],Active
same,Activity,Mus musculus [26],Active
same,Activity,Glucagon receptor [27],71%
same,Activity,Mus musculus [6],Active
same,Activity,Mus musculus [28],Active
same,EC50,Glucagon receptor [7],0.13 nM
same,Activity,Mus musculus [8],Active
same,Activity,Mus musculus [29],Dose-Dependent Effect
same,Activity,Mus musculus [30],Active
same,Activity,Mus musculus [31],Active
